The record followed here is PubChem BioAssay (NCI).

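Growth conditions: 96-well plates. Treatment: test compound, 48 hours, 5 concentrations. Analysis: linear interpolation between bracketing concentrations; unreached endpoints set to highest concentration. TGI marks complete inhibition of growth.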

A word on the TGI: it is the concentration at which net growth stops.

Some test systems named below: SW-620 colon; RPMI-8226 leukemia; MOLT-4 leukemia; BT-549 breast; A549 NSCLC; EKVX NSCLC; MALME-3M melanoma; SF-539 CNS; HL-60(TB) leukemia; UACC-257 melanoma; OVCAR-3 ovarian; MDA-MB-231 breast; HCT-15 colon; A498 renal; NCI-H522 lung; HCC-2998 colon; U251 CNS.
What all share (test): DTP human tumour cell line panel, 48 h

As to `c1ccc(CSc2nc(N3CCOCC3)c3cn[nH]c3n2)cc1`, the TGI in the experiment with SW-620 colon was 64.8 µM; in the experiment with RPMI-8226 leukemia it was 35.2 µM; with MOLT-4 leukemia, more than 100 µM; in the experiment on BT-549 breast, 40.3 µM; in the experiment on A549 NSCLC, more than 100 µM; in the experiment on EKVX NSCLC, 48 µM. The total growth inhibition concentration (TGI) is 31.8 µM in the experiment with MALME-3M melanoma; 56.4 µM in the experiment on SF-539 CNS; more than 100 µM with HL-60(TB) leukemia; 29.9 µM in the experiment on UACC-257 melanoma; more than 100 µM in the experiment with OVCAR-3 ovarian; 39.4 µM in the experiment on MDA-MB-231 breast. The concentration for total growth inhibition (TGI) with HCT-15 colon is more than 100 µM; in the experiment with A498 renal it was 26.1 µM; with NCI-H522 lung, 33.1 µM; with HCC-2998 colon, 69.2 µM; in the experiment on U251 CNS, 63.2 µM.

Take `COC(=O)c1c(C)cccc1/C=C1\Cc2cc(C)cc(C)c2C1=O`: the total growth inhibition concentration (TGI) in the experiment on SW-620 colon, in the experiment on RPMI-8226 leukemia, in the experiment with MOLT-4 leukemia, in the experiment on BT-549 breast, in the experiment on A549 NSCLC and in the experiment on EKVX NSCLC was more than 100 µM in each case. In addition, the TGI in the experiment on MALME-3M melanoma, in the experiment on SF-539 CNS, in the experiment on HL-60(TB) leukemia, with UACC-257 melanoma, in the experiment on OVCAR-3 ovarian and in the experiment with MDA-MB-231 breast was more than 100 µM in each case. Besides, the TGI is more than 100 µM in the experiment on HCT-15 colon; more than 100 µM with A498 renal; more than 100 µM in the experiment on NCI-H522 lung; more than 100 µM in the experiment with HCC-2998 colon; 48.2 µM in the experiment with U251 CNS.

As to `Cc1c(NC(=S)Nc2ccc(Cl)cc2)c(=O)n(-c2ccccc2)n1C`, the TGI with SW-620 colon, in the experiment with RPMI-8226 leukemia, with MOLT-4 leukemia, in the experiment with BT-549 breast, in the experiment on A549 NSCLC and in the experiment with EKVX NSCLC was more than 100 µM throughout. Besides, the TGI with MALME-3M melanoma, with SF-539 CNS, in the experiment with HL-60(TB) leukemia, in the experiment on UACC-257 melanoma, in the experiment on OVCAR-3 ovarian and in the experiment with MDA-MB-231 breast was more than 100 µM throughout. For the same molecule, the TGI with HCT-15 colon, in the experiment on A498 renal, with NCI-H522 lung, with HCC-2998 colon and with U251 CNS was more than 100 µM each time.

`O=[N+]([O-])c1cccnc1NCC1(CO)CC(Cc2ccccc2)C1` (centres undefined): the TGI with SW-620 colon, in the experiment with RPMI-8226 leukemia, with MOLT-4 leukemia, in the experiment with BT-549 breast, with A549 NSCLC and in the experiment on EKVX NSCLC was more than 100 µM each time. For the same molecule, the TGI in the experiment on MALME-3M melanoma, with SF-539 CNS, in the experiment with HL-60(TB) leukemia, in the experiment on UACC-257 melanoma, in the experiment on OVCAR-3 ovarian and in the experiment with MDA-MB-231 breast was more than 100 µM each time. Besides, the TGI in the experiment with HCT-15 colon, with A498 renal, in the experiment on NCI-H522 lung, in the experiment with HCC-2998 colon and in the experiment on U251 CNS was more than 100 µM each time.

For the molecule `O=[N+]([O-])c1ccc2nc(/C=C(\O)c3ccc(F)cc3)c(/C=C(\O)c3ccc(F)cc3)nc2c1`, the total growth inhibition concentration (TGI) in the experiment on SW-620 colon is more than 100 µM; with RPMI-8226 leukemia, more than 100 µM; in the experiment with MOLT-4 leukemia it was 43.5 µM; in the experiment with BT-549 breast it was 91.5 µM; in the experiment with A549 NSCLC, more than 100 µM; in the experiment on EKVX NSCLC, more than 100 µM. Moreover, the TGI in the experiment with MALME-3M melanoma is more than 100 µM; with SF-539 CNS, 56.3 µM; with HL-60(TB) leukemia it was 55.7 µM; with UACC-257 melanoma, more than 100 µM; with OVCAR-3 ovarian, more than 100 µM; in the experiment on MDA-MB-231 breast it was 69.6 µM. Moreover, the TGI in the experiment on HCT-15 colon was more than 100 µM; in the experiment on A498 renal, 52.3 µM; in the experiment with NCI-H522 lung, more than 100 µM; in the experiment with HCC-2998 colon it was more than 100 µM; with U251 CNS it was 70.5 µM.

As for `COC(=O)/C=c1/c2ccccc2n2nc3ccccc3c12`, the TGI in the experiment with SW-620 colon was more than 100 µM; in the experiment on RPMI-8226 leukemia, more than 100 µM; in the experiment on MOLT-4 leukemia, 35.3 µM; with BT-549 breast, more than 100 µM; in the experiment on A549 NSCLC, more than 100 µM; in the experiment on EKVX NSCLC, more than 100 µM. Moreover, the total growth inhibition concentration (TGI) in the experiment with MALME-3M melanoma is more than 100 µM; in the experiment with SF-539 CNS, more than 100 µM; with HL-60(TB) leukemia it was more than 100 µM; in the experiment with UACC-257 melanoma, more than 100 µM; in the experiment with OVCAR-3 ovarian, more than 100 µM; in the experiment with MDA-MB-231 breast it was 91.3 µM. For the same molecule, the total growth inhibition concentration (TGI) with HCT-15 colon was more than 100 µM; in the experiment on A498 renal, 93.3 µM; in the experiment with NCI-H522 lung, more than 100 µM; with HCC-2998 colon it was more than 100 µM; in the experiment with U251 CNS, more than 100 µM.

Regarding `COc1cccc(NC(=O)CC(=O)N2N=C(C)C(N=Nc3ccc(S(=O)(=O)c4ccc(N=NC5C(=O)N(C(=O)CC(=O)Nc6cccc(OC)c6)N=C5C)cc4)cc3)C2=O)c1` (centres undefined), the TGI with SW-620 colon, in the experiment with RPMI-8226 leukemia, with MOLT-4 leukemia, with BT-549 breast, in the experiment with A549 NSCLC and with EKVX NSCLC was more than 100 µM each time. Besides, the TGI in the experiment with MALME-3M melanoma, with SF-539 CNS, in the experiment on HL-60(TB) leukemia, in the experiment with UACC-257 melanoma, in the experiment with OVCAR-3 ovarian and with MDA-MB-231 breast was more than 100 µM each time. Moreover, the TGI in the experiment with HCT-15 colon, in the experiment with A498 renal, with NCI-H522 lung, with HCC-2998 colon and with U251 CNS was more than 100 µM throughout.

Regarding `O=c1[nH]nc(Cc2ccccc2)n1Nc1ccccc1`, the TGI in the experiment with SW-620 colon, with RPMI-8226 leukemia, in the experiment on MOLT-4 leukemia, in the experiment with BT-549 breast, in the experiment with A549 NSCLC and in the experiment on EKVX NSCLC was more than 100 µM in each case. In addition, the TGI in the experiment with MALME-3M melanoma, with SF-539 CNS, in the experiment on HL-60(TB) leukemia, with UACC-257 melanoma, in the experiment on OVCAR-3 ovarian and with MDA-MB-231 breast was more than 100 µM throughout. For the same molecule, the total growth inhibition concentration (TGI) in the experiment with HCT-15 colon, with A498 renal, with NCI-H522 lung, in the experiment with HCC-2998 colon and in the experiment with U251 CNS was more than 100 µM throughout.

In the case of `C1=C\CCCCN2C[C@H]3CCCC/C=C\CCCCN4CC[C@@H]([C@H](CCCCCC/1)C4)[C@H](C3)C2`, the concentration for total growth inhibition (TGI) turned out to be 6.71 µM in the experiment on SW-620 colon; 3.56 µM with RPMI-8226 leukemia; 4.79 µM in the experiment on MOLT-4 leukemia; 19.1 µM with BT-549 breast; 6.95 µM with A549 NSCLC; 22.5 µM in the experiment with EKVX NSCLC. Besides, the TGI in the experiment on MALME-3M melanoma was found to be 3.56 µM; with SF-539 CNS, 3.9 µM; in the experiment on HL-60(TB) leukemia, 12.1 µM; with UACC-257 melanoma it was 3.28 µM; in the experiment with OVCAR-3 ovarian, 3.48 µM; in the experiment with MDA-MB-231 breast, 3.01 µM. Besides, the total growth inhibition concentration (TGI) stood at 3.27 µM in the experiment with HCT-15 colon; 17.4 µM in the experiment with A498 renal; 3.33 µM in the experiment on NCI-H522 lung; 2.01 µM with HCC-2998 colon; 3.41 µM in the experiment with U251 CNS.

Consider `COc1ccc(N=C(Nc2ccc(OC)cc2)C(=Nc2ccc(OC)cc2)Nc2ccc(OC)cc2)cc1`, for which the total growth inhibition concentration (TGI) in the experiment with SW-620 colon, in the experiment on RPMI-8226 leukemia, with MOLT-4 leukemia, in the experiment with BT-549 breast, in the experiment with A549 NSCLC and in the experiment with EKVX NSCLC was more than 100 µM in each case. Further, the TGI in the experiment on MALME-3M melanoma, in the experiment on SF-539 CNS, with HL-60(TB) leukemia, with UACC-257 melanoma, with OVCAR-3 ovarian and in the experiment on MDA-MB-231 breast was more than 100 µM throughout. In addition, the TGI in the experiment on HCT-15 colon, with A498 renal, in the experiment on NCI-H522 lung, in the experiment with HCC-2998 colon and in the experiment on U251 CNS was more than 100 µM each time.

With `OC1COC(n2c3ccc(Br)cc3c3ccc4c5ccccc5[nH]c4c32)C(O)C1O` (centres undefined), the TGI with SW-620 colon was 29.4 µM; with RPMI-8226 leukemia, 15.8 µM; in the experiment on MOLT-4 leukemia it was 11.2 µM; in the experiment with BT-549 breast, 26.3 µM; in the experiment with A549 NSCLC, 23.7 µM; in the experiment with EKVX NSCLC, 17.3 µM. Besides, the TGI in the experiment with MALME-3M melanoma came to 15.3 µM; in the experiment with SF-539 CNS it was 16.2 µM; in the experiment on HL-60(TB) leukemia, 8.75 µM; in the experiment with UACC-257 melanoma it was 19.9 µM; in the experiment with OVCAR-3 ovarian, 12.5 µM; in the experiment on MDA-MB-231 breast it was 7.47 µM. Moreover, the TGI with HCT-15 colon was 15.7 µM; in the experiment on A498 renal it was 13.9 µM; with NCI-H522 lung, 11.3 µM; in the experiment on HCC-2998 colon, 11.4 µM; in the experiment on U251 CNS, 32.1 µM.

Turning to `C[Si](C)(OCCS(=O)(=O)O)C1S(=O)(=O)OCCOS1(=O)=O`, the TGI in the experiment on SW-620 colon, with RPMI-8226 leukemia, with MOLT-4 leukemia, in the experiment on BT-549 breast, in the experiment with EKVX NSCLC and in the experiment with MALME-3M melanoma was more than 100 µM in each case. Also, the TGI in the experiment with SF-539 CNS, in the experiment on HL-60(TB) leukemia, in the experiment on UACC-257 melanoma, with OVCAR-3 ovarian, with MDA-MB-231 breast and in the experiment on HCT-15 colon was more than 100 µM in each case. The concentration for total growth inhibition (TGI) in the experiment on A498 renal, with NCI-H522 lung, in the experiment on HCC-2998 colon and in the experiment on U251 CNS was more than 100 µM each time.

`O=C1CCCCc2cccc(O)c21`: the total growth inhibition concentration (TGI) in the experiment with SW-620 colon, in the experiment with RPMI-8226 leukemia, with MOLT-4 leukemia, with BT-549 breast, in the experiment on EKVX NSCLC and with MALME-3M melanoma was more than 100 µM in each case. Besides, the total growth inhibition concentration (TGI) in the experiment with SF-539 CNS, in the experiment with HL-60(TB) leukemia, in the experiment with UACC-257 melanoma, with OVCAR-3 ovarian, with MDA-MB-231 breast and in the experiment with HCT-15 colon was more than 100 µM each time. Moreover, the TGI with A498 renal, in the experiment on NCI-H522 lung, with HCC-2998 colon and in the experiment on U251 CNS was more than 100 µM each time.
